In brackets after ≈: the same amount, converted by molar mass.
Tests used:
[1] = system: Candida guillermondii MY1019; assay: broth microdilution assay (MIC/MFC); conditions: for MIC: MY1019, 24 h, read-out: Minimum Inhibitory Concentration (MIC); for MFC: MY1019, read-out: Minimum Fungicidal Concentration (MFC)
[2] = system: Aspergillus fumigatus MY4839; assay: broth microdilution assay (MIC/MFC); conditions: MY4839, 24 h, read-out: Minimum Inhibitory Concentration (MIC)
[3] = system: Candida tropicalis MY1012; assay: broth microdilution assay (MIC/MFC); conditions: for MIC: MY1012, 24 h, read-out: Minimum Inhibitory Concentration (MIC); for MFC: MY1012, read-out: Minimum Fungicidal Concentration (MFC)
[4] = system: Aspergillus fumigatus MY5668; assay: broth microdilution assay (MIC/MFC); conditions: MY5668, 24 h, read-out: Minimum Inhibitory Concentration (MIC)
[5] = system: Candida tropicalis MY1124; assay: broth microdilution assay (MIC/MFC); conditions: for MIC: MY1124, 24 h, read-out: Minimum Inhibitory Concentration (MIC); for MFC: MY1124, read-out: Minimum Fungicidal Concentration (MFC)
[6] = system: Candida albicans MY1055; assay: broth microdilution assay (MIC/MFC); conditions: for MIC: MY1055, 24 h, read-out: Minimum Inhibitory Concentration (MIC); for MFC: MY1055, read-out: Minimum Fungicidal Concentration (MFC)
[7] = system: Candida albicans CLY539; assay: broth microdilution assay (MIC/MFC); conditions: for MIC: CLY539, 24 h, read-out: Minimum Inhibitory Concentration (MIC); for MFC: CLY539, read-out: Minimum Fungicidal Concentration (MFC)
[8] = system: Candida parapsilosis MY1010; assay: broth microdilution assay (MIC/MFC); conditions: Lodderomyces parapsilosis; for MIC: MY1010, 24 h, read-out: Minimum Inhibitory Concentration (MIC); for MFC: MY1010, read-out: Minimum Fungicidal Concentration (MFC)
[9] = system: Cryptococcus neoformans MY2062; assay: broth microdilution assay (MIC/MFC); conditions: MY2062, 48 h; for MIC: read-out: Minimum Inhibitory Concentration (MIC); for MFC: read-out: Minimum Fungicidal Concentration (MFC)
[10] = system: Candida pseudotropicalis MY2099; assay: broth microdilution assay (MIC/MFC); conditions: Kluyveromyces marxianus; for MIC: MY2099, 24 h, read-out: Minimum Inhibitory Concentration (MIC); for MFC: MY2099, read-out: Minimum Fungicidal Concentration (MFC)
[11] = system: Candida albicans CA2; assay: broth microdilution assay (MIC/MFC); conditions: for MIC: CA2, 24 h, read-out: Minimum Inhibitory Concentration (MIC); for MFC: CA2, read-out: Minimum Fungicidal Concentration (MFC)
[12] = system: Saccharomyces cerevisiae MY2141; assay: broth microdilution assay (MIC/MFC); conditions: for MIC: MY2141, 24 h, read-out: Minimum Inhibitory Concentration (MIC); for MFC: MY2141, read-out: Minimum Fungicidal Concentration (MFC)
[13] = system: Candida glabrata MY1381; assay: broth microdilution assay (MIC/MFC); conditions: Nakaseomyces glabratus; for MIC: MY1381, 24 h, read-out: Minimum Inhibitory Concentration (MIC); for MFC: MY1381, read-out: Minimum Fungicidal Concentration (MFC)
[14] = system: Saccharomyces cerevisiae MY2140; assay: broth microdilution assay (MIC/MFC); conditions: for MIC: MY2140, 24 h, read-out: Minimum Inhibitory Concentration (MIC); for MFC: MY2140, read-out: Minimum Fungicidal Concentration (MFC)
[15] = system: Puccinia recondita; assay: in vivo protectant assay, wheat leaf rust on wheat; conditions: P. recondita, scaled up, high spray volume assay, 100 ppm
[16] = system: panel of seven pathogens; assay: in vivo protectant assay, panel of seven phytopathogens
[17] = system: Plasmopara viticola; assay: in vivo protectant assay, downy mildew on grape; conditions: P. viticola
[18] = system: Alternaria solani; assay: in vivo protectant assay, early blight on tomato; conditions: A. solani, miniature plant assay
[19] = system: Phytophthora infestans; assay type: in vivo; conditions: P. infestans, miniature plant assay
[20] = system: Cryptococcus neoformans MY2061; assay: broth microdilution assay (MIC/MFC); conditions: MY2061, 48 h; for MFC: read-out: Minimum Fungicidal Concentration (MFC); for MIC: read-out: Minimum Inhibitory Concentration (MIC)
[21] = system: Botrytis cinerea; assay: in vivo protectant assay, grey mold on pepper; conditions: B. cinerea
[22] = system: Aspergillus flavus, Fusarium oxysporum, Ustilago zeae and the like; assay: agar plate inhibition zone test with filamentous fungi; assay type: cell-based; conditions: agar plates, 28°C or 37°C, 24 hours
[23] = system: Septoria nodorum; assay: in vivo protectant assay, glume blotch on wheat; conditions: S. nodorum, scaled up, high spray volume assay, 100 ppm
[24] = scaled up, high spray volume assay, 100 ppm

SMILES | MIC [1] | MFC [1] | MIC [2] | MIC [3] | MFC [3] | MIC [4] | MIC [5] | MFC [5] | MIC [6] | MFC [6] | MIC [7] | MFC [7] | MIC [8] | MFC [8] | MIC [9] | MIC [10] | MFC [10] | MIC [11] | MFC [11] | MIC [12] | other results
C[C@@H]1[C@H](O)[C@@H](C)/C=C/C=C/C=C/C=C/C=C/C=C/C=C/[C@H](O[C@@H]2O[C@H](C)[C@@H](O)[C@H](N)[C@@H]2O)C[C@@H]2O[C@](O)(C[C@@H](O)C[C@@H](O)[C@H](O)CC[C@@H](O)C[C@@H](O)CC(=O)O[C@H]1C)C[C@H](O)[C@H]2C(=O)O [Amphotericin B, amphotericin B, reference compound] | 1 µg/mL (≈ 1.08 µM) | 2 µg/mL (≈ 2.16 µM) | 2 µg/mL (≈ 2.16 µM) | 16 µg/mL (≈ 17.3 µM) | 16 µg/mL (≈ 17.3 µM) | 2 µg/mL (≈ 2.16 µM) | 2 µg/mL (≈ 2.16 µM) | 2 µg/mL (≈ 2.16 µM) | 1 µg/mL (≈ 1.08 µM) | 1 µg/mL (≈ 1.08 µM) | 1 µg/mL (≈ 1.08 µM) | 2 µg/mL (≈ 2.16 µM) | 1 µg/mL (≈ 1.08 µM) | 1 µg/mL (≈ 1.08 µM) | 1 µg/mL (≈ 1.08 µM) | 2 µg/mL (≈ 2.16 µM) | 2 µg/mL (≈ 2.16 µM) | 1 µg/mL (≈ 1.08 µM) | 1 µg/mL (≈ 1.08 µM) | 1 µg/mL (≈ 1.08 µM) | MFC [12]: 1 µg/mL (≈ 1.08 µM); MIC [13]: 2 µg/mL (≈ 2.16 µM); MFC [13]: 2 µg/mL (≈ 2.16 µM); MIC [14]: 1 µg/mL (≈ 1.08 µM); MFC [14]: 1 µg/mL (≈ 1.08 µM)
C=CC1=CCC2C(CC3OC(=O)C4(C)C(O)CCC2(C)C34O)C1C (stereo not drawn) [Compound II] | 8 µg/mL (≈ 24.1 µM) | 16 µg/mL (≈ 48.1 µM) | 2 µg/mL (≈ 6.02 µM) | 2 µg/mL (≈ 6.02 µM) | 2 µg/mL (≈ 6.02 µM) | 1 µg/mL (≈ 3.01 µM) | 4 µg/mL (≈ 12 µM) | 8 µg/mL (≈ 24.1 µM) | 2 µg/mL (≈ 6.02 µM) | 4 µg/mL (≈ 12 µM) | 2 µg/mL (≈ 6.02 µM) | 2 µg/mL (≈ 6.02 µM) | 8 µg/mL (≈ 24.1 µM) | 8 µg/mL (≈ 24.1 µM) | 1 µg/mL (≈ 3.01 µM) | 1 µg/mL (≈ 3.01 µM) | 2 µg/mL (≈ 6.02 µM) | 32 µg/mL (≈ 96.3 µM) | 4 µg/mL (≈ 12 µM) | 0.5 µg/mL (≈ 1.5 µM) | percent control of disease [15]: 100%; control of phytopathogens [16]: very efficacious at controlling six of the phytopathogens; percent control of disease ([17]; miniature plant assay): 80-95%; percent control of disease ([17]; protectant assay, 11 ppm): 50-85%; percent control of disease [17, 24]: 100%; percent control of disease [18]: 80-95%; percent control of disease [19]: 80-95%; MFC [20]: 1 µg/mL (≈ 3.01 µM); MIC [20]: 2 µg/mL (≈ 6.02 µM); percent control of disease ([21]; miniature plant assay): 80-95%; percent control of disease ([21]; protectant assay, 11 ppm): 50-85%; percent control of disease [21, 24]: 100%; MFC [9]: 1 µg/mL (≈ 3.01 µM); inhibition of growth of filamentous fungi [22]: effectively inhibit growth of the fungal organisms; percent control of disease [23]: 60%; MFC [12]: 1 µg/mL (≈ 3.01 µM); MIC [13]: 4 µg/mL (≈ 12 µM); MFC [13]: 4 µg/mL (≈ 12 µM); MIC [14]: 1 µg/mL (≈ 3.01 µM); MFC [14]: 2 µg/mL (≈ 6.02 µM)
C=CC1C(=C)CCC2C1CC1OC(=O)C3(C)C(O)CCC2(C)C13O (stereo not drawn) [Compound I] | 8 µg/mL (≈ 24.1 µM) | 16 µg/mL (≈ 48.1 µM) | 4 µg/mL (≈ 12 µM) | 2 µg/mL (≈ 6.02 µM) | 2 µg/mL (≈ 6.02 µM) | 8 µg/mL (≈ 24.1 µM) | 8 µg/mL (≈ 24.1 µM) | 16 µg/mL (≈ 48.1 µM) | 2 µg/mL (≈ 6.02 µM) | 4 µg/mL (≈ 12 µM) | 4 µg/mL (≈ 12 µM) | 2 µg/mL (≈ 6.02 µM) | 8 µg/mL (≈ 24.1 µM) | 32 µg/mL (≈ 96.3 µM) | 0.25 µg/mL (≈ 0.752 µM) | 4 µg/mL (≈ 12 µM) | 4 µg/mL (≈ 12 µM) | 8 µg/mL (≈ 24.1 µM) | 8 µg/mL (≈ 24.1 µM) | 1 µg/mL (≈ 3.01 µM) | percent control of disease ([17]; 200 ppm): up to 80%; MFC [20]: 0.25 µg/mL (≈ 0.752 µM); MIC [20]: 0.5 µg/mL (≈ 1.5 µM); percent control of disease ([21]; 200 ppm): up to 80%; MFC [9]: 0.25 µg/mL (≈ 0.752 µM); inhibition of growth of filamentous fungi [22]: effectively inhibit growth of the fungal organisms; MFC [12]: 8 µg/mL (≈ 24.1 µM); MIC [13]: 8 µg/mL (≈ 24.1 µM); MFC [13]: 8 µg/mL (≈ 24.1 µM); MIC [14]: 2 µg/mL (≈ 6.02 µM); MFC [14]: 8 µg/mL (≈ 24.1 µM)
